Activity calls are given as the source filed them. The rule behind the calls is not given here. Residues, ends and D or L forms follow the SMILES beside them.
Columns and labels:
Mus musculus [1] = assay: Antidiabetic activity in STZ induced male Balb/c mouse model assessed as ordered nephron cells with glomeruli at 63.81 ug/kg, ip treated for 21 days; type: functional, organism-based; settings: dose 63.81 µg/kg, time 21.0 day
Mus musculus [2] = assay: Antidiabetic activity in STZ induced male Balb/c mouse model assessed as reduction in bowman's space at 63.81 ug/kg, ip treated for 21 days; type: functional, organism-based; settings: dose 63.81 µg/kg, time 21.0 day
Mus musculus [3] = assay: Antidiabetic activity in STZ induced male Balb/c mouse model assessed as reduction in glomerulus diameter at 63.81 ug/kg, ip treated for 21 days; type: functional, organism-based; settings: dose 63.81 µg/kg, time 21.0 day
Mus musculus [4] = assay: Antidiabetic activity in STZ induced male Balb/c mouse model assessed as appearance of tubule epithelium at 63.81 ug/kg, ip treated for 21 days; type: functional, organism-based; settings: dose 63.81 µg/kg, time 21.0 day
[5] = target: T1, Pancreatic alpha-amylase (Sus scrofa) (UniProt P00690); assay: Mixed type inhibition of porcine pancreatic Alpha-amylase using starch as substrate pre-incubated for 20 mins followed by substrate addition and measured after 15 mins by DNS reagent based absorbance assay; settings: time 35.0 min
T1 sequence (whole entry): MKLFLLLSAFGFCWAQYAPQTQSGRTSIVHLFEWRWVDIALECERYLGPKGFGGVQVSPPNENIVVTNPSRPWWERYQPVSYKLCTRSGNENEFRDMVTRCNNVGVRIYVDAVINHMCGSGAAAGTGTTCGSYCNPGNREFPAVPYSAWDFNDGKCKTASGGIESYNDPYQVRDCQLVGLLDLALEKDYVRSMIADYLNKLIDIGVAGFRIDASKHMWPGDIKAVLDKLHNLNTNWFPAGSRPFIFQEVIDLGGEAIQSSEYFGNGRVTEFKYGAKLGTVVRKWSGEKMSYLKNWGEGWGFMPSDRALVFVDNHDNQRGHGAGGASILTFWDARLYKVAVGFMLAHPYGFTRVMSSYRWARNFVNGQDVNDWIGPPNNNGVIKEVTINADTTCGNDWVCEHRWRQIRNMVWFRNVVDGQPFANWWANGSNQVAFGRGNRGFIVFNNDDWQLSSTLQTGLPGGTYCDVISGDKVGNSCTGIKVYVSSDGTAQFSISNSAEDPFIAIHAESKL

[6] = test system: N=C(N)NCCC[C@H](N)C(=O)N[C@@H](Cc1c[nH]c2ccccc12)C(=O)N[C@@H](Cc1c[nH]c2ccccc12)C(=O)O; assay: Competitive inhibition of Alpha-glucosidase (unknown origin) using p-nitrophenyl-alpha-D-glucopyranoside as substrate assessed as Km pre-incubated for 10 mins followed by substrate addition and measured after 5 mins by Lineweaver-Burk plot analysis (reference value: 1.785 mM); type: protein assay; settings: Homo sapiens; time 15.0 min
[7] = test system: N=C(N)NCCC[C@H](N)C(=O)N[C@@H](Cc1c[nH]c2ccccc12)C(=O)N[C@@H](Cc1c[nH]c2ccccc12)C(=O)O; assay: Competitive inhibition of Alpha-glucosidase (unknown origin) using p-nitrophenyl-alpha-D-glucopyranoside as substrate assessed as maximum velocity pre-incubated for 10 mins followed by substrate addition and measured after 5 mins by Lineweaver-Burk plot analysis (reference value: 0.802); type: protein assay; settings: Homo sapiens; time 15.0 min
Mus musculus [8] = assay: Antidiabetic activity in STZ induced male Balb/c mouse model assessed as amelioration of abnormal nephron cell morphology at 10 mg/kg, po treated for 21 days; type: functional, organism-based; settings: time 21.0 day
Mus musculus [9] = assay: Antidiabetic activity in STZ induced male Balb/c mouse model assessed as amelioration of endocytic vacuole content at 10 mg/kg, po treated for 21 days; type: functional, organism-based; settings: time 21.0 day
Mus musculus [10] = assay: Antidiabetic activity in STZ induced male Balb/c mouse model assessed as amelioration of glomerular necrosis at 10 mg/kg, po treated for 21 days; type: functional, organism-based; settings: time 21.0 day
Mus musculus [11] = assay: Antidiabetic activity in STZ induced male Balb/c mouse model assessed as amelioration of glomerular shrinkage at 10 mg/kg, po treated for 21 days; type: functional, organism-based; settings: time 21.0 day
Mus musculus [12] = assay: Antidiabetic activity in STZ induced male Balb/c mouse model assessed as amelioration of tubular necrosis at 10 mg/kg, po treated for 21 days; type: functional, organism-based; settings: time 21.0 day
Mus musculus [13] = assay: Antidiabetic activity in STZ induced male Balb/c mouse model assessed as amelioration of tubular degeneration at 10 mg/kg, po treated for 21 days; type: functional, organism-based; settings: time 21.0 day

With `N=C(N)NCCC[C@H](N)C(=O)N[C@@H](Cc1c[nH]c2ccccc12)C(=O)N[C@@H](Cc1c[nH]c2ccccc12)C(=O)O` (H-Arg-Trp-Trp-OH) the Activity (Mus musculus [1]) was “Active”, the Activity (Mus musculus [2]) was “Active” and the Activity (Mus musculus [3]) was “Active”. The Activity (Mus musculus [4]) was “Active” and the inhibition [5] was “Active”.

In the case of “Alpha glucosidase (Homo sapiens) (from UniProt O43451+P10253+P14410+Q2M2H8)”, the Km [6] is reported as 1370 µM and the Vmax [7] is reported as 0.7.

For `CCC1=C(C)CN(C(=O)NCCc2ccc(S(=O)(=O)NC(=O)N[C@H]3CC[C@H](C)CC3)cc2)C1=O`, the Activity (Mus musculus [8]) was “Active”, the Activity (Mus musculus [9]) was “Active” and the Activity (Mus musculus [10]) was “Active”. For the same compound, the Activity (Mus musculus [11]) was “Active”, the Activity (Mus musculus [12]) was “Active” and the Activity (Mus musculus [13]) was “Active”.

Reference: ChEMBL document CHEMBL6109039, “Designed and synthesized novel tripeptides targeting diabetes and its related pathologies” (Eur J Med Chem, 2025)
